From patent publication US10328011B2, “Use of proline containing dipeptides” (DSM IP ASSETS B.V., priority 2015, dated 2019)

How the values were obtained:
Format in all cases: cell-based
PLOD3 = assay: Gene-expression analysis in normal human dermal fibroblasts: PLOD3; conditions: 24 hrs
Method: PLOD3: The enzyme catalyzes the hydroxylation of lysyl residues in collagen-like peptides. The resultant hydroxylysyl groups are attachment sites for carbohydrates in collagen and thus are critical for the stability of intermolecular crosslinks.
(§1) Normal human dermal fibroblasts at passage 7 from a donor were cultured in DMEM with L-glutamine 2 mM, Penicillin 50 U/ml-Streptomycin 50 ug/ml and 10% FCS in a 5% CO2 atmosphere at 37° C. After equilibration of cell in 1% FCS for 24 hrs the respective peptides H-(beta-Ala)-Pro-Dab-NH-benzyl [CAS 823202-99-9], respectively N-palmitoyl-Gly-His-Lys [147732-56-7]/N-palmitoyl-Gly-Gln-Pro-Arg [221227-C5-0] (2:1) diluted in growth medium to a concentration of 0.01% were added and the cells were incubated for an additional 24 hrs. At the end of incubation cells were washed in PBS and immediately frozen at −80° C. Total RNA was extracted using NucleoSpin RNA Plus kit (Macherey-Nagel) according to supplier's instructions. cDNA was synthesized by reverse transcription of total RNA using Transcriptor Reverse Transcriptase (Roche). PCR was performed on a LightCycler device (Roche Molecular Systems Inc.) according to manufacturer's instructions. Raw data were analyzed using Microsoft Excel.

LOXL2 = assay: Gene-expression analysis in normal human dermal fibroblasts: LOXL2; conditions: peptide 0.01%, 24 hrs
Method: LOXL2: This gene encodes a member of the lysyl oxidase gene family that catalyses the first step in the formation of crosslinks in collagens.
as §1

PCOLCE = assay: Gene-expression analysis in normal human dermal fibroblasts: PCOLCE; conditions: peptide 0.01%, 24 hrs
Method: PCOLCE: This gene encodes a glycoprotein which binds and drives the enzymatic cleavage of type I procollagen upon secretion from the cell, to yield the mature triple helical, highly structured fibrils.
as §1

ADAMTS2 = assay: Gene-expression analysis in normal human dermal fibroblasts: ADAMTS2; conditions: peptide 0.01%, 24 hrs
Method: ADAMTS2 is responsible for processing several types of procollagen proteins. Specifically, this enzyme clips a short chain of amino acids off one end of the procollagen. This clipping step is necessary for collagen molecules to function normally and assemble into fibrils outside cells.
as §1

H-(beta-Ala)-Pro-Dab-NH-benzyl [H-(β-Ala)-Pro-Dab-NH-benzyl]
PLOD3 gene expression (PLOD3; normal human dermal fibroblasts, peptide 0.01%): 299%
upregulation of genes involved in collagen fiber maturation (in words) (PLOD3; summary over PLOD3, LOXL2, PCOLCE, ADAMTS2, fibroblasts, 0.01%): significantly upregulates
LOXL2 gene expression (LOXL2): 237%
PCOLCE gene expression (PCOLCE): 137%
ADAMTS2 gene expression (ADAMTS2): 151%
